Source: BindingDB's records for doi:10.3109/14756360902932784 (Ewha Womans University, 2010)
Numbering of substitutions follows the chain as printed.

Legend:
[1] = biological target: T1, 5-hydroxytryptamine receptor 1A (Homo sapiens, UniProt P08908); assay: [3H]8-OH-DPAT Binding Assay; conditions: pH 7.4; 27 °C
T1 sequence (P08908 whole entry): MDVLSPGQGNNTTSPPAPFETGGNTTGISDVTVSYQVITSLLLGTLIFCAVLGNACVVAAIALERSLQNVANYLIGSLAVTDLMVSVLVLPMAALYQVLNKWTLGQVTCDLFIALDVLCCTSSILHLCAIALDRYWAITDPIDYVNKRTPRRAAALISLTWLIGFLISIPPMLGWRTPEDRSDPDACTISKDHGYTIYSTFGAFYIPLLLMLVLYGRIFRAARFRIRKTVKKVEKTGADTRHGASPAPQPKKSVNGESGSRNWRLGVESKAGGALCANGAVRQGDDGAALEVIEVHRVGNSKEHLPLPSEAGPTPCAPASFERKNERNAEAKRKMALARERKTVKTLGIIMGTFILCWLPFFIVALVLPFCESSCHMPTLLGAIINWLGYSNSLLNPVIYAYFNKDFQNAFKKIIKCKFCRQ
Experimental: For the binding assay, aliquots of receptor membranes, 0.25 nM [3H]8-OH-DPAT (8-hydroxy-2-(di-N-propylamino)tetralin, 154.3 Ci/mM; New England Nuclear, Boston, MA) and appropriate concentrations of test compounds were added to 0.25 mL of 50 mM Tris-HCl (pH 7.4) buffer containing 10 mM MgSO4, 0.5 mM ethylenediaminetetraacetic acid (EDTA), and 0.1% ascorbic acid. Incubations were carried out for 60 min at 27 °C, and these were terminated by rapid filtration using a MicroBeta FilterMate-96 harvester (PerkinElmer) through a Filtermat A glass fiber filter presoaked in 0.3% polyethylenimine (PEI). The filter was washed with ice-cold 50 mM Tris-HCl buffer solution (pH 7.4), and was then covered with MeltiLex, sealed in a sample bag, and dried in an oven.

[2] = biological target: 5-hydroxytryptamine receptor 2A (Homo sapiens, UniProt P28223); assay: [3H]Ketanserin Binding Assay; conditions: pH 7.4
Experimental: For serotonin 5-HT2A binding, an aliquot of frozen membrane from a CHO-K1 cell line expressing the human recombinant 5-HT2A receptor (PerkinElmer) and [3H]ketanserin (1 nM; PerkinElmer) were used in the presence of mianserin (20 μM) as nonspecific. The reaction mixture was incubated for 60 min at 27°C using 50 mM Tris-HCl (pH 7.4) buffer containin 4 mM CaCl2 and 0.1% ascorbic acid, and harvested through a Filtermat A glass fiber filter presoaked in 0.5% PEI.

[3] = biological target: T2, 5-hydroxytryptamine receptor 2C (Homo sapiens, UniProt P28335); assay: [3H]Mesulergine Binding Assay; conditions: pH 7.4
T2 sequence (P28335 whole entry): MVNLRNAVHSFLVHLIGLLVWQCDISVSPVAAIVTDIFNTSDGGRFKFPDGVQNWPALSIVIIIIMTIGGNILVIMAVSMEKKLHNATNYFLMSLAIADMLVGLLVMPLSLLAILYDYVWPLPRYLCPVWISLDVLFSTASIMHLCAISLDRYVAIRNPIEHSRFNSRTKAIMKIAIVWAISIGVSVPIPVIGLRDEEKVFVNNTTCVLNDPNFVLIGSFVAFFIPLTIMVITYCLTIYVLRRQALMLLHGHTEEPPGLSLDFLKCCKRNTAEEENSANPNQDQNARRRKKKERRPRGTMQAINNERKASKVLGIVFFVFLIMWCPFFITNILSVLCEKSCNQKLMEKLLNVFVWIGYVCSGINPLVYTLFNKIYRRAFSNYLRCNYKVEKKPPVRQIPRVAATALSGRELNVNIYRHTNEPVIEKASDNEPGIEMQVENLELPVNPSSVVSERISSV
Experimental: (§1) Frozen membranes from a stable CHO-K1 cell line expressing the human recombinant 5-HT2C receptor (PerkinElmer) were used. For the binding assay, [3H]mesulergine (1 nM; Amersham Biosciences, Buckinghamshire, UK), receptor membrane, and test compounds were added into 50 mM Tris-HCl (pH 7.4) buffer containing 0.1% ascorbic acid and 4 mM CaCl2. Nonspecific binding was determined using 100 μM mianserin. The incubations were performed for 60 min at 27°C, and these were terminated by rapid filtration through a Filtermat A glass fiber filter presoaked in 0.5% PEI.

[4] = biological target: 5-hydroxytryptamine receptor 6 (Homo sapiens, UniProt P50406); assay: [3H] LSD Binding Assay; conditions: pH 7.4; 27 °C
Experimental: (§2) For receptor binding assays, human 5-HT6 and 5-HT7 serotonin receptors expressed in CHO-K1 cells (PerkinElmer) were used. For 5-HT6 receptor binding, frozen membrane, 1 nM [3H]LSD (lysergic acid diethylamide; PerkinElmer), and appropriate concentrations of test compounds were added to 0.25 mL of 50 mM Tris-HCl (pH 7.4) buffer containing 0.1% ascorbic acid and 4 mM CaCl2. Nonspecific binding was determined using 10 μM methiothepin. The incubations were performed for 60 min at 27 °C, and these were terminated by rapid filtration through a Filtermat A glassfiber filter presoaked in 0.5% PEI. For the 5-HT7 receptor binding assay, cell membrane, 3 nM [3H]LSD, and appropriate concentrations of test compounds were added to 0.25 mL of 50 mM Tris-HCl (pH 7.4) buffer containing 10 mM MgSO4 and 0.5 mM EDTA. The mixture was incubated for 120 min at 27 °C, and the reaction was terminated by rapid filtration through a Filtermat A glass fiber filter presoaked in 0.3% PEI. Nonspecific binding was determined using 10 μM methiothepin.

[5] = biological target: 5-hydroxytryptamine receptor 7 (Homo sapiens, UniProt P34969); assay: [3H] LSD Binding Assay; conditions: pH 7.4; 27 °C
Experimental: as §2

[6] = biological target: T3, 5-hydroxytryptamine receptor 2C (Homo sapiens, UniProt P28335); assay: [3H]Mesulergine Binding Assay; conditions: pH 7.4; remark: listed apart in the source
T3 sequence (P28335 whole entry): T2 sequence (P28335 whole entry) with C23S
Experimental: as §1

Chain of 5-hydroxytryptamine receptor 6 (P50406 whole entry): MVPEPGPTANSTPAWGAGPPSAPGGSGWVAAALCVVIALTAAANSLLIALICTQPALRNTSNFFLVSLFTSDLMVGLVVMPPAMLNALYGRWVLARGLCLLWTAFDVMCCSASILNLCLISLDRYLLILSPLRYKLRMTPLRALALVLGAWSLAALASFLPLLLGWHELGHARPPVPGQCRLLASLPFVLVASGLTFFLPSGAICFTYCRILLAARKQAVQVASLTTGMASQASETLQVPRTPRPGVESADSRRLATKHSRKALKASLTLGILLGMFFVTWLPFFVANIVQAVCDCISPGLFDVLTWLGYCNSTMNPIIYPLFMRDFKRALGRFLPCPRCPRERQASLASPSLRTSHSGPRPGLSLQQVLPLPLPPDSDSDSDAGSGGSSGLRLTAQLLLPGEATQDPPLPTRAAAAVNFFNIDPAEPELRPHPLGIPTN
Chain of 5-hydroxytryptamine receptor 7 (P34969 whole entry): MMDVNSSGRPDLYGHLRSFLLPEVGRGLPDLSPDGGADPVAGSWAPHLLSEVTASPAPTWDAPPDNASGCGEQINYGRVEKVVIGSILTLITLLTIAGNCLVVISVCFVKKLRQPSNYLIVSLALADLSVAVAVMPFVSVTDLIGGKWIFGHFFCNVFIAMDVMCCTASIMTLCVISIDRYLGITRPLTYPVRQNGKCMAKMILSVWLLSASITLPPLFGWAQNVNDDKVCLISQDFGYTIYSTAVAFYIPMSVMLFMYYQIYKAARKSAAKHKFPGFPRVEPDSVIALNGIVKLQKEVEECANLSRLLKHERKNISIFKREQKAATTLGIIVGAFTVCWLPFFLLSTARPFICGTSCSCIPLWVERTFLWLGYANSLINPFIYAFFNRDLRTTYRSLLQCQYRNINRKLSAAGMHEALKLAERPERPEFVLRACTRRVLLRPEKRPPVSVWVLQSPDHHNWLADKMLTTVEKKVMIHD
Chain of 5-hydroxytryptamine receptor 2A (P28223 whole entry): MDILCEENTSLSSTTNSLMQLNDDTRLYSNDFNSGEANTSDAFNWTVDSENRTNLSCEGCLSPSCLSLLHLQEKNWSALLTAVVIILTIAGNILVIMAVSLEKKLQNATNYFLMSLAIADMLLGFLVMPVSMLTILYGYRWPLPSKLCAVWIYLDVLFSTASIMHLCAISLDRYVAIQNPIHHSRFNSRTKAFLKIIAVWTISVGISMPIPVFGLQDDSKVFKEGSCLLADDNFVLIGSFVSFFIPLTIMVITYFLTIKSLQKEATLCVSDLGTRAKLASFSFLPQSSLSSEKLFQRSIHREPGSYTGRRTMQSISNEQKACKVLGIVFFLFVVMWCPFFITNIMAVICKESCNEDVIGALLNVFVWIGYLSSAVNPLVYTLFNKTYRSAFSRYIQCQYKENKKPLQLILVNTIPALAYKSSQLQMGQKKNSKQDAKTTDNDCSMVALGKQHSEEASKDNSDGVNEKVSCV

| Compound | IC50 [1] [µM] | IC50 [2] [µM] | IC50 [3] [µM] | IC50 [4] [µM] | IC50 [5] [µM] | IC50 [6] [µM] |
| --- | --- | --- | --- | --- | --- | --- |
| CNC(=O)/C=C/c1cc(OC)c(OC)c(OC)c1 [(E)-N-Methyl-3-(3,4,5-trimethoxyphenyl) acrylamide (1a)] | 5.6 | > 10 | > 10 | > 10 | > 10 |  |
| COc1cc(/C=C/C(=O)O)cc(OC)c1OC [3,4,5-Trimethoxycinnamic acid (TMCA)] | 7.6 | > 10 |  | > 10 | > 10 | 2.5 |
| CCCCCCCCNC(=O)/C=C/c1cc(OC)c(OC)c(OC)c1 [(E)-N-Octyl-3-(3,4,5-trimethoxyphenyl) acrylamide (1e)] | 1.2 | > 10 |  | > 10 | > 10 | 8.8 |
| CCCCNC(=O)/C=C/c1cc(OC)c(OC)c(OC)c1 [(E)-N-Butyl-3-(3,4,5-trimethoxyphenyl) acrylamide (1c)] | 4.9 | > 10 | > 10 | > 10 | > 10 |  |
| CCCCCCCCCCNC(=O)/C=C/c1cc(OC)c(OC)c(OC)c1 [(E)-N-Decyl-3-(3,4,5-trimethoxyphenyl) acrylamide (1f)] | 2.1 | 6.8 |  | 5.6 | 6.7 | 4.5 |
| CCCCCCNC(=O)/C=C/c1cc(OC)c(OC)c(OC)c1 [(E)-N-Hexyl-3-(3,4,5-trimethoxyphenyl) acrylamide (1d)] | 3.8 | > 10 | > 10 | > 10 | > 10 |  |
| C=CCNC(=O)/C=C/c1cc(OC)c(OC)c(OC)c1 [(E)-N-Allyl-3-(3,4,5-trimethoxyphenyl) acrylamide (1b)] | 5.9 | > 10 | > 10 | > 10 | > 10 |  |
